Earlier results as cited in patent publication US9987593B2, “Method for producing NOx storage-reduction catalyst” (TOYOTA JIDOSHA KABUSHIKI KAISHA, priority 2016, dated 2018).

| Compound | solubility in water | solubility in water (in words) |
| --- | --- | --- |
| [K+].c1ccc([B-](c2ccccc2)(c2ccccc2)c2ccccc2)cc1 [potassium tetraphenylborate] | 0.18 mg/100 ml H2O | substantially insoluble in water |
| O=C(O)c1nc(=O)[nH]c(=O)[nH]1 [oteracil potassium, reference compound] | – | substantially insoluble in water |
